According to patent publication US11530244B2, “Cyclic polypeptides for PCSK9 inhibition” (priority 2018, dated 2022):
Starred links: 1 amine or outer side, 2 acyl side, 3 side chain; linkers in the order of their positions; H or OH if unused. Positions of bridges follow the written chain, without caps; N, C: chain ends. Non-standard residues stand in square brackets, D forms with d. Residues, ends and D or L forms follow the SMILES beside them. X18 = O=C([C@@H](Cc1cccc(OCC=[*:3])c1)N[*:1])[*:2]; Trp(5-F) = N[C@@H](Cc1c[nH]c2ccc(F)cc12)C(=O)O; Pro(trans-4-F) = O=C(O)[C@@H]1C[C@@H](F)CN1; X11 = COc1ccc(C[C@H](N[*:1])C(=O)[*:2])cc1C; X13 = O=C(CCCCc1cccc(CCCCN[*:1])c1)[*:2]; Dip = N[C@H](C(=O)O)C(c1ccccc1)c1ccccc1; X36 = O=C([C@H](CC1=NC=NC1)N[*:1])[*:2]; X4 = O=C(CCSCc1cccc(CSCCN[*:1])c1)[*:2]; mXylylene = c1cc(C[*:1])cc(C[*:2])c1; Val(3-OH) = CC(C)(O)[C@H](N)C(=O)O; X7 = O=C(Cc1ccc(CN[*:1])cc1)[*:2]; X35 = COc1cc(C[*:1])cc(C[*:2])c1; X22 = Oc1cc(C[*:1])cc(C[*:2])c1; NMeD = CN[C@@H](CC(=O)O)C(=O)O; aThr = C[C@H](O)[C@H](N)C(=O)O; AllylGly = C=CC[C@H](N)C(=O)O; αMeP = C[C@@]1(C(=O)O)CCCN1; dDab = NCC[C@@H](N)C(=O)O; dDap = NC[C@@H](N)C(=O)O; Mpa = O=C(O)CCS

Assays:
[1] = target: human PCSK9 / human LDLR EGFa domain interaction (Homo sapiens (Human), UniProt Q8NBP7); experiment: TR-FRET assay of inhibition of the PCSK9-LDLR protein-protein interaction; type: binding; settings: TR-FRET, 20 nM human PCSK9, 20 nM human LDLR EGFa domain, 2 hours room temperature; read-out: IC50
human PCSK9 / human LDLR EGFa domain interaction, sequence (Q8NBP7 153-692): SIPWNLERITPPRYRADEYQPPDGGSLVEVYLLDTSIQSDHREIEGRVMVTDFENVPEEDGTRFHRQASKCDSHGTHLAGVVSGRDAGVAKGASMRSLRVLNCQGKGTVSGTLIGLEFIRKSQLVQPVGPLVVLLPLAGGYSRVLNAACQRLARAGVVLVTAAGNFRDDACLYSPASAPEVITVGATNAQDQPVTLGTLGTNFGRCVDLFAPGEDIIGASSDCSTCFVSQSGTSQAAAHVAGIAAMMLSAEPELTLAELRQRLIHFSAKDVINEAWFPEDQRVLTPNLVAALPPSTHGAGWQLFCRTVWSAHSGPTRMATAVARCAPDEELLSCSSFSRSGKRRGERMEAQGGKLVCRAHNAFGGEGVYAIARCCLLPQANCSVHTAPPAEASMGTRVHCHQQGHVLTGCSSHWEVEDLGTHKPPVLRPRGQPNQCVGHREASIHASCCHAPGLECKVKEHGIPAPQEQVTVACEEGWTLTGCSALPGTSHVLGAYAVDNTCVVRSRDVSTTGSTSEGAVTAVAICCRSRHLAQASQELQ
human PCSK9 / human LDLR EGFa domain interaction, sequence (Q8NBP7 31-152 partner): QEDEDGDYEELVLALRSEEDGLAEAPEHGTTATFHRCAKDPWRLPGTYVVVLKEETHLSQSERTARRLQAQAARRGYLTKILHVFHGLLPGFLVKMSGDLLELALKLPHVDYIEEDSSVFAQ
Outline: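 20 nM biotin-avitag PCSK9 + 20 nM His-LDLR EGFa; 5 nM Ulight-SA / 5 nM Eu-anti-His; 2 h RT; HEPES 50 mM, NaCl 150 mM, CaCl2 5 mM, 0.01% BSA, 0.01% P20. Half-maximal inhibition, 4-parameter fit.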

PCSK9 = PCSK9 (Homo sapiens (Human), UniProt Q8NBP7); experiment: PCSK9 Alexa FRET Standard assay (displacement of AlexaFluor647 tagged cyclic peptide Reagent A); type: binding; settings: PCSK9 Alexa FRET Standard assay, 0.5 nM PCSK9, 20 nM AF cyclic peptide Reagent A; read-out: IC50
PCSK9, sequence (Q8NBP7 153-692): as the sequence (Q8NBP7 153-692) above
Outline: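 TR-FRET displacement: 0.5 nM biotinylated PCSK9 with 1.25 nM Strep-Eu and 20 nM AlexaFluor-tagged cyclic peptide (final) in 50 mM HEPES pH 7.4, 0.15 M NaCl, 5 mM CaCl2, 0.01% BSA, 0.01% P20, ≥2 h at room temperature. IC50 from sigmoidal fit, converted to Ki via peptide KD; falling Eu counts flagged false positives.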

Row | Structure (SMILES) | IC50 [1] | IC50 (PCSK9)
1 | COc1ccc(C[C@@H]2NC(=O)[C@H]([C@@H](C)O)NC(=O)[C@@H]3CCCN3C(=O)[C@H](Cc3c[nH]c4ccc(F)cc34)NC(=O)[C@H](Cc3c[nH]c4ccc(F)cc34)NC(=O)[C@@H](C)NC(=O)[C@H](C)NC(=O)CCCCc3cccc(c3)CCCCNC(=O)[C@@H]3CCCN3C2=O)cc1 [Compound 047] (cyclo(A[dA][Trp(5-F)][Trp(5-F)]PTY(Me)P[X13])) | 100 to 1000 nM | 100 to 1000 nM
2 | COc1ccc(C[C@@H]2NC(=O)[C@H]([C@@H](C)O)NC(=O)[C@@H]3CCCN3C(=O)[C@H](Cc3c[nH]c4ccc(F)cc34)NC(=O)[C@H](Cc3c[nH]c4ccc(F)cc34)NC(=O)[C@@H](C)NC(=O)[C@H](CCCCN)NC(=O)CCSCc3cc(O)cc(c3)CSC[C@@H](C(N)=O)NC(=O)[C@]3(C)CCCN3C2=O)cc1 [Compound 060] ([Mpa]K[dA][Trp(5-F)][Trp(5-F)]PTY(Me)[αMeP]C-NH2; linker 1-10 via X22) | 21000 to 50000 nM | 21000 to 50000 nM
3 | C[C@@]12CCCN1C(=O)[C@H](Cc1ccc(O)cc1)NC(=O)[C@H](Cc1cnc[nH]1)NC(=O)[C@H](CC(=O)O)NC(=O)[C@H](Cc1c[nH]c3ccc(F)cc13)NC(=O)[C@H](Cc1c[nH]c3ccc(F)cc13)NC(=O)CNC(=O)[C@@H](CN)NC(=O)CCSCc1cccc(c1)CSC[C@@H](C(N)=O)NC2=O [Compound 354] ([Mpa][dDap]G[Trp(5-F)][Trp(5-F)]DHY[αMeP]C-NH2; linker 1-10 via mXylylene) | 21000 to 50000 nM | 21000 to 50000 nM
4 | C[C@@H](O)[C@@H]1NC(=O)[C@H](Cc2c[nH]c3ccc(F)cc23)NC(=O)[C@H](Cc2c[nH]c3ccc(F)cc23)NC(=O)CNC(=O)[C@H](CCCCN)NC(=O)CCSCc2cccc(c2)CSC[C@@H](C(N)=O)NC(=O)[C@@H]2CCCN2C(=O)[C@H](Cc2ccc(O)cc2)NC(=O)[C@H](Cc2c[nH]cn2)NC1=O [Compound 224] ([Mpa]KG[Trp(5-F)][Trp(5-F)]THYPC-NH2; linker 1-10 via mXylylene) | 100 to 1000 nM | 100 to 1000 nM
5 | COc1ccc(C[C@@H]2NC(=O)[C@H](Cc3cnc[nH]3)NC(=O)[C@H](CC(=O)O)NC(=O)[C@H](Cc3c[nH]c4ccc(F)cc34)NC(=O)[C@H](Cc3c[nH]c4ccc(F)cc34)NC(=O)[C@@H](C)NC(=O)Cc3ccc(cc3)CNC(=O)C[C@@H](C(N)=O)NC(=O)[C@]3(C)CCCN3C2=O)cc1 [Compound 403] ([X7][dA][Trp(5-F)][Trp(5-F)]DHY(Me)[αMeP]D-NH2; lactam N-9) | 100 to 1000 nM | 1000 to 12100 nM
6 | COc1ccc(C[C@@H]2NC(=O)[C@H](Cc3cnc[nH]3)NC(=O)[C@H](CC(=O)O)NC(=O)[C@H](Cc3c[nH]c4ccc(F)cc34)NC(=O)[C@H](Cc3c[nH]c4ccc(F)cc34)NC(=O)[C@H](C)NC(=O)[C@H](NC(C)=O)CCCc3cn(nn3)-c3ccc(cc3)C[C@@H](C(N)=O)NC(=O)[C@]3(C)CCCN3C2=O)cc1 [Compound 395] | 21000 to 50000 nM | 21000 to 50000 nM
7 | CC(C)(O)[C@@H]1NC(=O)[C@@H]2CCCN2C(=O)[C@H](Cc2c[nH]c3ccc(F)cc23)NC(=O)[C@H](Cc2c[nH]c3ccc(F)cc23)NC(=O)CNC(=O)[C@H](CCCCN)NC(=O)CCSCc2cccc(c2)CSC[C@@H](C(N)=O)NC(=O)[C@]2(C)CCCN2C(=O)[C@H](Cc2ccc(O)cc2)NC1=O [Compound 048] ([Mpa]KG[Trp(5-F)][Trp(5-F)]P[Val(3-OH)]Y[αMeP]C-NH2; linker 1-10 via mXylylene) | 100 to 1000 nM | 100 to 1000 nM
8 | C[C@H]1NC(=O)[C@H](CCCCN)NC(=O)CCSCc2cccc(c2)CSCCNC(=O)[C@]2(C)CCCN2C(=O)[C@H](C(c2ccccc2)c2ccccc2)NC(=O)[C@H](Cc2cnc[nH]2)NC(=O)[C@H](CC(=O)O)NC(=O)[C@H](Cc2c[nH]c3ccc(F)cc23)NC(=O)[C@H](Cc2c[nH]c3ccc(F)cc23)NC1=O [Compound 406] (cyclo(DH[Dip][αMeP][X4]K[dA][Trp(5-F)][Trp(5-F)])) | 0.1 to 100 nM | 100 to 1000 nM
9 | CO[C@H](C)[C@@H]1NC(=O)[C@@H]2C[C@@H](F)CN2C(=O)[C@H](Cc2c[nH]c3ccc(F)cc23)NC(=O)[C@H](Cc2c[nH]c3ccc(F)cc23)NC(=O)CNC(=O)[C@H](CCCCN)NC(=O)CCSCc2cccc(c2)CSC[C@@H](C(N)=O)NC(=O)[C@]2(C)CCCN2C(=O)[C@H](Cc2ccc(O)cc2)NC1=O [Compound 059] ([Mpa]KG[Trp(5-F)][Trp(5-F)][Pro(trans-4-F)]T(Me)Y[αMeP]C-NH2; linker 1-10 via mXylylene) | 100 to 1000 nM | 100 to 1000 nM
10 | COc1ccc(C[C@@H]2NC(=O)[C@H](CC3=NC=NC3)NC(=O)[C@H](CC(=O)O)NC(=O)[C@H](Cc3c[nH]c4ccc(F)cc34)NC(=O)[C@H](C(c3ccccc3)c3ccccc3)NC(=O)[C@@H](C)NC(=O)[C@H](CCCCN)NC(=O)CCSCc3cccc(c3)CSCCNC(=O)[C@]3(C)CCCN3C2=O)cc1 [Compound 275] (cyclo(D[X36]Y(Me)[αMeP][X4]K[dA][Dip][Trp(5-F)])) | 0.1 to 100 nM | 0.11 to 100 nM
11 | C[C@H](O)[C@@H]1NC(=O)[C@@H]2CCCN2C(=O)[C@H](Cc2c[nH]c3ccc(F)cc23)NC(=O)[C@H](Cc2c[nH]c3ccc(F)cc23)NC(=O)CNC(=O)[C@H](CCCCN)NC(=O)CCSCc2cccc(c2)CSC[C@@H](C(N)=O)NC(=O)[C@]2(C)CCCN2C(=O)[C@H](Cc2ccc(O)cc2)NC1=O [Compound 050] ([Mpa]KG[Trp(5-F)][Trp(5-F)]P[aThr]Y[αMeP]C-NH2; linker 1-10 via mXylylene) | 21000 to 50000 nM | 21000 to 50000 nM
12 | COc1ccc(C[C@@H]2NC(=O)[C@H](Cc3c[nH]cn3)NC(=O)[C@H](CC(=O)O)NC(=O)[C@H](Cc3c[nH]c4ccc(F)cc34)NC(=O)[C@H](Cc3c[nH]c4ccc(F)cc34)NC(=O)[C@@H](C)NC(=O)[C@H](CCCCN)NC(=O)CCSCc3cccc(c3)CSCCNC(=O)[C@]3(C)CCCN3C2=O)cc1C [Compound 387] (cyclo(DH[X11][αMeP][X4]K[dA][Trp(5-F)][Trp(5-F)])) | 0.1 to 100 nM | 100 to 1000 nM
13 | CN1C(=O)[C@H](Cc2c[nH]c3ccc(F)cc23)NC(=O)[C@H](Cc2c[nH]c3ccc(F)cc23)NC(=O)CNC(=O)[C@H](CCCCN)NC(=O)CCSCc2cccc(c2)CSC[C@@H](C(N)=O)NC(=O)[C@@H]2CCCN2C(=O)[C@H](Cc2ccc(O)cc2)NC(=O)[C@H](Cc2cnc[nH]2)NC(=O)[C@@H]1CC(=O)O [Compound 171] ([Mpa]KG[Trp(5-F)][Trp(5-F)][NMeD]HYPC-NH2; linker 1-10 via mXylylene) | 0.1 to 100 nM | 100 to 1000 nM
14 | C[C@@H]1NC(=O)CCSCc2cccc(c2)CSCCNC(=O)[C@]2(C)CCCN2C(=O)[C@H](Cc2ccc(O)cc2)NC(=O)[C@H](C)NC(=O)[C@@H]2C/C=C\COc3cccc(c3)C[C@@H](NC(=O)[C@@H](C)NC1=O)C(=O)N[C@@H](Cc1c[nH]c3ccc(F)cc13)C(=O)N2 [Compound 498] (cyclo(AY[αMeP][X4]A[dA][X18][Trp(5-F)][AllylGly]); staple (Z) 7-9) | 1000 to 12100 nM | 1000 to 12100 nM
15 | COc1ccc(C[C@@H]2NC(=O)[C@H](Cc3cnc[nH]3)NC(=O)[C@H](CC(=O)O)NC(=O)[C@H](Cc3c[nH]c4ccc(F)cc34)NC(=O)[C@H](Cc3c[nH]c4ccc(F)cc34)NC(=O)[C@@H](C)NC(=O)[C@H](CCCCN)NC(=O)[C@@H](NC(C)=O)CCc3cn(nn3)-c3ccc(cc3)C[C@@H](C(N)=O)NC(=O)[C@]3(C)CCCN3C2=O)cc1 [Compound 371] | 0.1 to 100 nM | 0.11 to 100 nM
16 | COc1ccc(C[C@@H]2NC(=O)[C@H]([C@@H](C)O)NC(=O)[C@@H]3CCCN3C(=O)[C@H](Cc3c[nH]c4ccc(F)cc34)NC(=O)[C@H](Cc3c[nH]c4ccc(F)cc34)NC(=O)[C@@H](C)NC(=O)[C@H](CCCCN)NC(=O)CCSCc3cc(cc(OC)c3)CSC[C@@H](C(N)=O)NC(=O)[C@]3(C)CCCN3C2=O)cc1 [Compound 063] ([Mpa]K[dA][Trp(5-F)][Trp(5-F)]PTY(Me)[αMeP]C-NH2; linker 1-10 via X35) | 1000 to 12100 nM | 21000 to 50000 nM
17 | COc1ccc(C[C@@H]2NC(=O)[C@H](C)NC(=O)[C@@H]3CCCCNc4cc(ccn4)C[C@H](NC(=O)[C@@H](C)NC(=O)[C@H](C)NC(=O)CCSCc4cccc(c4)CSC[C@@H](C(N)=O)NC(=O)[C@]4(C)CCCN4C2=O)C(=O)N[C@@H](Cc2c[nH]c4ccc(F)cc24)C(=O)N3)cc1 [Compound 515] | 0.1 to 100 nM | 0.11 to 100 nM
18 | CO[C@@H](C)[C@@H]1NC(=O)[C@@H]2CCCN2C(=O)[C@H](Cc2c[nH]c3ccc(F)cc23)NC(=O)[C@H](Cc2c[nH]c3ccc(F)cc23)NC(=O)[C@@H](C)NC(=O)[C@H](CCCCN)NC(=O)CCSCc2cccc(c2)CSC[C@@H](C(N)=O)NC(=O)[C@]2(C)CCCN2C(=O)[C@H](Cc2ccc(O)cc2)NC1=O [Compound 053] ([Mpa]K[dA][Trp(5-F)][Trp(5-F)]P[aThr](Me)Y[αMeP]C-NH2; linker 1-10 via mXylylene) | 1000 to 12100 nM | 1000 to 12100 nM
19 | C[C@@]12CCCN1C(=O)[C@H](Cc1ccc(O)cc1)NC(=O)[C@H](Cc1cnc[nH]1)NC(=O)[C@H](CC(=O)O)NC(=O)[C@H](Cc1c[nH]c3ccc(F)cc13)NC(=O)[C@H](Cc1c[nH]c3ccc(F)cc13)NC(=O)CNC(=O)[C@@H](CCN)NC(=O)CCSCc1cccc(c1)CSC[C@@H](C(N)=O)NC2=O [Compound 355] ([Mpa][dDab]G[Trp(5-F)][Trp(5-F)]DHY[αMeP]C-NH2; linker 1-10 via mXylylene) | 100 to 1000 nM | 100 to 1000 nM
